From patent US20070117182A1, “Nucleic acids conferring transcriptional responsiveness on the RANKL gene promoter and uses thereof” (Wisconsin Alumni Research Foundation, priority 2005, published 2007)

Experiments:
osteopontin (OPN) = assay: RT-PCR of osteopontin control gene in treated ST2 cells; format: cell-based, mouse; conditions: up to 24 hours
Procedure: FIG. 2. Induction of RANKL in ST2 cells by hormones and cytokines. ST2 cells were treated with the agents indicated for periods up to 24 hours. Total RNA was isolated and subjected to RT-PCR using a primer set to mouse RANKL and beta-actin. Positive vitamin D target control genes include Cyp24 and osteopontin (OPN).
The inventors first established a model in which RANKL is both induced in response to 1,25(OH)2D3, PTH (forskolin) and oncostatin M (OSM), and is capable of supporting osteoclast formation when co-cultured with bone marrow monocyte- or spleen cell-derived osteoclast precursors. While a number of cell types express RANKL and induce osteoclastogenesis, the historical literature strongly supports mouse ST2 cells in this capacity, prompting the inventors to focus on this stromal/preosteoblastic line for initial studies. […] Each of these components is known to both induce RANKL expression and promote osteoclast formation as well. […] Indeed, GC effects are widely observed. […] The ability of GCs to enhance osteoclast formation in coculture assays in the presence of 1,25(OH)2D3, however, is likely due also to its coordinate ability to suppress OPG.

Cyp24 promoter = assay: ChIP of VDR/RXR at Cyp24 promoter in ST2 cells; format: cell-based, mouse; conditions: 10^-7 M, 6 hours
Procedure: (§1) FIG. 3. ChIP/chip analysis of the RANKL gene locus. A) ChIP: ST2 cells were treated with either vehicle or 1,25(OH)2D3 (10^−7 M) and after 6 hours subjected to ChIP using antibodies to VDR, RXR and IgG. Precipitated DNA was analyzed for the presence of either the Cyp24 or the OPN promoter. B) Arrangement of the mouse RANKL gene locus and position of flanking genes. RANKL gene is transcribed on the reverse strand (right to left). C) DNA chip: Precipitated DNA was linearly amplified and then subjected to chip analysis using tiled oligonucleotide arrays containing 50-mers spanning the RANKL gene locus as described in the text. Hybridization data derived from the arrays are indicated in log2 scale across the locus with nucleotide positions on chromosome 14 indicated on the X axis. The first set of two arrays provide linear data comparing IgG (±1,25(OH)2D3) and VDR (±1,25(OH)2D3) over the RANKL upstream regions. The second set of three arrays provides an expanded view of hybridization data comparing VDR (±1,25(OH)2D3), VDR (+1,25(OH)2D3 vs input DNA) and RXR (+1,25(OH)2D3 vs input DNA). VDR/RXR binding regions D1-D5 are tracked by the shading.
(§2) As a first step, the inventors treated ST2 cells with either vehicle or 1,25(OH)2D3 for 6 hours, fixed the cells with formalin, and then subjected the cell lysates to ChIP analysis using antibodies to VDR, RXR, and an IgG control. […]

D5 fragment in MC-3T3-E1 = assay: pRL-D5/TK-luc reporter in MC-3T3-E1 cells; format: cell-based; conditions: osteoblast mouse cell line MC-3T3-E1, which does not produce RANKL
OPN promoter = assay: ChIP of VDR/RXR at OPN promoter in ST2 cells; format: cell-based, mouse; conditions: 10^-7 M, 6 hours
Procedure: as §1, §2

[1] = tested on: D5 region of the human RANKL gene; assay: ChIP analysis of the D5 region of the human RANKL gene in MG-63 cells; format: cell-based
Procedure: FIG. 14. […] Cells were treated with the indicated inducers for the periods identified and isolated RNA subjected to PCR analysis for Cyp24, RANKL and b-actin. B) 1,25(OH)2D3 induces VDR binding to the conserved D5 region of the human RANKL gene in MG-63 cells. […] Two different primer sets to the human D5 region were used to assess VDR binding. VDR binding was also observed at D3-D1 but not in intervening regions or at the TSS. C) The human D5 region is transcriptionally active in MG-63 cells. […] Luciferase activity was analysed 24 hours later. […] Data are the average of triplicate determinations, SEM.
Input represents DNA abundance prior to precipitation with either antibodies to the VDR or non specific IgG.

[2] = tested on: D1-D4 regions of the RANKL gene; assay: pTK-RL(D1)-(D4) luciferase reporters in ST2 cells; format: cell-based, mouse
Procedure: FIG. 12. Transcriptional activities of the D1-D4 regions of the RANKL gene in the context of the TK promoter were analyzed and corresponding data is shown in FIG. 12. The D1-D4 regions of the RANKL gene were cloned into the pTK vector and termed PTK-RL(D1)-(D4). […] Cells were harvested after 24 hours and luciferase activity assessed. Luciferase was normalized using beta-gal activity. Data in FIG. 12 represent the mean of triplicate determinations (SEM).
The activity of an enhancer must be evaluated in the context of its local environment, preferentially in the context of both other enhancers and its native promoter. In the case of the RANKL gene, however, this is clearly not possible due to the numbers and the distant locations of the potential regulatory regions. […] To ensure that the viral TK promoter background was not contributing to our evaluation, the inventors cloned the mouse RANKL promoter (−100 to +65) into pGL3, inserted RL D5 and evaluated its activity in ST2 cells as well.
Transcriptional activities of the D1-D4 regions of the RANKL gene in the context of the TK promoter were analyzed and corresponding data is shown in FIG. 12. […] Cells were harvested after 24 hours and luciferase activity assessed. […]

C=C1/C(=C\C=C2/CCC[C@]3(C)[C@@H]([C@H](C)CCCC(C)(C)O)CC[C@@H]23)C[C@@H](O)C[C@@H]1O [1,25(OH)2D3]
osteopontin (OPN) induction (osteopontin (OPN)): induced in a time-dependent manner | abundance of Cyp24 promoter DNA precipitated with VDR and RXR antibodies (Cyp24 promoter): clearly increased the abundance of DNA | stimulation via the D5 fragment in MC-3T3-E1 (D5 fragment in MC-3T3-E1): failed to stimulate | abundance of OPN promoter DNA precipitated with VDR and RXR antibodies (OPN promoter): clearly increased the abundance of DNA | RXR binding to the D5 region of the human RANKL gene [1]: also induced to bind | VDR binding to the D5 region of the human RANKL gene [1]: induced | luciferase activity of regions D1 through D4 ([2]; increasing concentrations, no added VDR): failed to show increased activity | response from D2 and D3 ([2]; with exogenous VDR expression vector): modest response
